Tests used:
Conditions in all cases: 48 h
NOMO1 [1] = experiment: cell viability relative to DMSO control; higher = less cytotoxic
Outline: (§1)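 Viability is a per-plate percentage relative to DMSO wells, with cell-free wells as background. CellTiter-Glo One luminescence was read after 48 h at 37°C on 1536-well plates (5 μl) of NOMO1 or SEM (500 cells/well) or P12-Ichikawa (1000 cells/well) leukemia cells. The cells had been adapted for at least four passages in each medium and pin-dosed with library compounds in DMSO from 47 μM to 0.79 nM in 11 threefold steps.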

P12-Ichikawa [2] = experiment: as above
Outline: as §1

SEM cells [3] = experiment: as above
Outline: as §1

NOMO1 [4] = experiment: AUC of viability dose-response curve (% viability x log10 dose units); higher = less sensitive
Outline: (§2)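 Seeding of medium-adapted leukemia cells was at 500 or 1000 cells/well in 1536-well plates, followed by 48 h at 37°C with library compounds in DMSO at 11 threefold doses from 47 μM to 0.79 nM. CellTiter-Glo One luminescence was normalised per plate to DMSO and cell-free wells and fitted as a four-parameter log-logistic function of log10 dose. Area under the curve was integrated by trapezoidal rule, with curves exceeding full viability scaled and curves failing quality control removed.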

P12-Ichikawa [5] = experiment: as above
Outline: as §2

SEM cells [6] = experiment: as above
Outline: as §2

Cl.Cl.Cl.O[C@@H](COc1cccc2ncccc12)CN1CCN([C@@H]2c3ccccc3[C@@H]3[C@H](c4ccccc42)C3(F)F)CC1
cell viability [%]
Conditions	NOMO1 [1]	P12-Ichikawa [2]	SEM cells [3]
HPLM + 10% dialyzed FBS, 0.000781 µM	79.7	94.8	88.2
HPLM + 10% dialyzed FBS, 0.00234 µM	84.8	94.5	103
HPLM + 10% dialyzed FBS, 0.00702 µM	75.8	88.4	82.3
HPLM + 10% dialyzed FBS, 0.0211 µM	89.4	89.7	83.8
HPLM + 10% dialyzed FBS, 0.0632 µM	94.7	90.5	105
HPLM + 10% dialyzed FBS, 0.19 µM	102	92.9	90
HPLM + 10% dialyzed FBS, 0.569 µM	93.8	84	84.5
HPLM + 10% dialyzed FBS, 1.71 µM	76.5	83.8	89.6
HPLM + 10% dialyzed FBS, 5.12 µM	94.6	81.8	91.9
HPLM + 10% dialyzed FBS, 15.4 µM	70.8	84.5	71.2
HPLM + 10% dialyzed FBS, 46.1 µM	68.6	79.3	73.4
RPMI 5 mM glucose + 10% FBS, 0.000781 µM	79.7	89.1	89.3
RPMI 5 mM glucose + 10% FBS, 0.00234 µM	78.4	79.1	100
RPMI 5 mM glucose + 10% FBS, 0.00702 µM	75.8	77.9	75.7
RPMI 5 mM glucose + 10% FBS, 0.0211 µM	91.7	84	95.7
RPMI 5 mM glucose + 10% FBS, 0.0632 µM	97	88.5	98.6
RPMI 5 mM glucose + 10% FBS, 0.19 µM	84.5	87	82.6
RPMI 5 mM glucose + 10% FBS, 0.569 µM	89.8	71	86.2
RPMI 5 mM glucose + 10% FBS, 1.71 µM	87.9	81.6	94.5
RPMI 5 mM glucose + 10% FBS, 5.12 µM	81	78.4	100
RPMI 5 mM glucose + 10% FBS, 15.4 µM	76.2	79.8	97.3
RPMI 5 mM glucose + 10% FBS, 46.1 µM	74.2	84.6	3.4
RPMI 5 mM glucose + 10% dialyzed FBS, 0.000781 µM	98.6	91.8	94.1
RPMI 5 mM glucose + 10% dialyzed FBS, 0.00234 µM	83.8	84.3	92.1
RPMI 5 mM glucose + 10% dialyzed FBS, 0.00702 µM	87.2	86.3	85.7
RPMI 5 mM glucose + 10% dialyzed FBS, 0.0211 µM	79.5	86.7	93.9
RPMI 5 mM glucose + 10% dialyzed FBS, 0.0632 µM	81	81.6	101
RPMI 5 mM glucose + 10% dialyzed FBS, 0.19 µM	92.4	84.6	102
RPMI 5 mM glucose + 10% dialyzed FBS, 0.569 µM	73.5	84.4	86.9
RPMI 5 mM glucose + 10% dialyzed FBS, 1.71 µM	84.2	77.8	106
RPMI 5 mM glucose + 10% dialyzed FBS, 5.12 µM	86.2	78.6	85.3
RPMI 5 mM glucose + 10% dialyzed FBS, 15.4 µM	78.2	78.4	105
RPMI 5 mM glucose + 10% dialyzed FBS, 46.1 µM	87	76.3	83.5

AUC of viability dose-response curve
Conditions	NOMO1 [4]	P12-Ichikawa [5]	SEM cells [6]
HPLM + 10% dialyzed FBS	404	418	421
RPMI 5 mM glucose + 10% FBS	397	391	418
RPMI 5 mM glucose + 10% dialyzed FBS	401	395	449

O=NN(CCCl)C(=O)NC1CCCCC1
cell viability [%]
Conditions	NOMO1 [1]	P12-Ichikawa [2]	SEM cells [3]
HPLM + 10% dialyzed FBS, 0.000781 µM	91.4	102	84.7
HPLM + 10% dialyzed FBS, 0.00234 µM	114	106	94.3
HPLM + 10% dialyzed FBS, 0.00702 µM	110	107	94.3
HPLM + 10% dialyzed FBS, 0.0211 µM	94.8	96.4	89.2
HPLM + 10% dialyzed FBS, 0.0632 µM	105	107	91.5
HPLM + 10% dialyzed FBS, 0.19 µM	107	107	101
HPLM + 10% dialyzed FBS, 0.569 µM	113	112	111
HPLM + 10% dialyzed FBS, 1.71 µM	110	111	90.8
HPLM + 10% dialyzed FBS, 5.12 µM	111	111	89.9
HPLM + 10% dialyzed FBS, 15.4 µM	97.4	103	89.3
HPLM + 10% dialyzed FBS, 46.1 µM	109	105	86.7
RPMI 5 mM glucose + 10% FBS, 0.000781 µM	99.2	102	114
RPMI 5 mM glucose + 10% FBS, 0.00234 µM	95.4	96.5	117
RPMI 5 mM glucose + 10% FBS, 0.00702 µM	113	97.1	113
RPMI 5 mM glucose + 10% FBS, 0.0211 µM	95.2	97.3	103
RPMI 5 mM glucose + 10% FBS, 0.0632 µM	102	116	126
RPMI 5 mM glucose + 10% FBS, 0.19 µM	108	113	93.7
RPMI 5 mM glucose + 10% FBS, 0.569 µM	115	104	122
RPMI 5 mM glucose + 10% FBS, 1.71 µM	56.6	97.2	121
RPMI 5 mM glucose + 10% FBS, 5.12 µM	100	112	132
RPMI 5 mM glucose + 10% FBS, 15.4 µM	110	107	109
RPMI 5 mM glucose + 10% FBS, 46.1 µM	102	111	101
RPMI 5 mM glucose + 10% dialyzed FBS, 0.000781 µM	102	97.4	81.3
RPMI 5 mM glucose + 10% dialyzed FBS, 0.00234 µM	102	105	86.1
RPMI 5 mM glucose + 10% dialyzed FBS, 0.00702 µM	93.5	105	87.5
RPMI 5 mM glucose + 10% dialyzed FBS, 0.0211 µM	105	102	88.3
RPMI 5 mM glucose + 10% dialyzed FBS, 0.0632 µM	111	113	89.3
RPMI 5 mM glucose + 10% dialyzed FBS, 0.19 µM	97.7	108	92.2
RPMI 5 mM glucose + 10% dialyzed FBS, 0.569 µM	113	105	98.9
RPMI 5 mM glucose + 10% dialyzed FBS, 1.71 µM	93.6	110	104
RPMI 5 mM glucose + 10% dialyzed FBS, 5.12 µM	99.2	105	101
RPMI 5 mM glucose + 10% dialyzed FBS, 15.4 µM	109	103	100
RPMI 5 mM glucose + 10% dialyzed FBS, 46.1 µM	99.7	113	70.8

AUC of viability dose-response curve
Conditions	NOMO1 [4]	P12-Ichikawa [5]	SEM cells [6]
HPLM + 10% dialyzed FBS	474	468	445
RPMI 5 mM glucose + 10% FBS	472	453	475
RPMI 5 mM glucose + 10% dialyzed FBS	475	462	433

CC[C@H](CC#N)OC(=O)N[C@@H](C)c1cccc(NC(=O)Nc2ccc(-c3cnco3)c(OC)c2)c1
cell viability [%]
Conditions	NOMO1 [1]	P12-Ichikawa [2]	SEM cells [3]
HPLM + 10% dialyzed FBS, 0.000781 µM	117	117	105
HPLM + 10% dialyzed FBS, 0.00234 µM	114	112	98.7
HPLM + 10% dialyzed FBS, 0.00702 µM	119	120	111
HPLM + 10% dialyzed FBS, 0.0211 µM	105	–	119
HPLM + 10% dialyzed FBS, 0.0632 µM	127	111	118
HPLM + 10% dialyzed FBS, 0.19 µM	111	107	86.2
HPLM + 10% dialyzed FBS, 0.569 µM	98.2	106	71.8
HPLM + 10% dialyzed FBS, 1.71 µM	76.4	74.9	74.8
HPLM + 10% dialyzed FBS, 5.12 µM	38.9	49.8	44.5
HPLM + 10% dialyzed FBS, 15.4 µM	32.1	49.1	30.3
HPLM + 10% dialyzed FBS, 46.1 µM	35.1	40.6	31.6
RPMI 5 mM glucose + 10% FBS, 0.000781 µM	111	119	108
RPMI 5 mM glucose + 10% FBS, 0.00234 µM	104	121	112
RPMI 5 mM glucose + 10% FBS, 0.00702 µM	121	118	114
RPMI 5 mM glucose + 10% FBS, 0.0211 µM	107	117	118
RPMI 5 mM glucose + 10% FBS, 0.0632 µM	114	132	112
RPMI 5 mM glucose + 10% FBS, 0.19 µM	105	113	96
RPMI 5 mM glucose + 10% FBS, 0.569 µM	113	97.2	76.3
RPMI 5 mM glucose + 10% FBS, 1.71 µM	66.8	65.9	68
RPMI 5 mM glucose + 10% FBS, 5.12 µM	38.3	44.3	47.7
RPMI 5 mM glucose + 10% FBS, 15.4 µM	25.9	33.4	30.2
RPMI 5 mM glucose + 10% FBS, 46.1 µM	22.3	30.4	18.1
RPMI 5 mM glucose + 10% dialyzed FBS, 0.000781 µM	117	112	107
RPMI 5 mM glucose + 10% dialyzed FBS, 0.00234 µM	106	120	110
RPMI 5 mM glucose + 10% dialyzed FBS, 0.00702 µM	115	111	124
RPMI 5 mM glucose + 10% dialyzed FBS, 0.0211 µM	120	120	105
RPMI 5 mM glucose + 10% dialyzed FBS, 0.0632 µM	111	121	105
RPMI 5 mM glucose + 10% dialyzed FBS, 0.19 µM	112	110	112
RPMI 5 mM glucose + 10% dialyzed FBS, 0.569 µM	91	90.4	100
RPMI 5 mM glucose + 10% dialyzed FBS, 1.71 µM	84	59.1	99.6
RPMI 5 mM glucose + 10% dialyzed FBS, 5.12 µM	51.9	42.3	67.9
RPMI 5 mM glucose + 10% dialyzed FBS, 15.4 µM	39.4	40.2	43.3
RPMI 5 mM glucose + 10% dialyzed FBS, 46.1 µM	35.8	40.6	38.7

AUC of viability dose-response curve
Conditions	NOMO1 [4]	P12-Ichikawa [5]	SEM cells [6]
HPLM + 10% dialyzed FBS	371	384	356
RPMI 5 mM glucose + 10% FBS	368	359	347
RPMI 5 mM glucose + 10% dialyzed FBS	379	363	408
